Read-outs that look alike come from different tables or passages of the source.
Columns and labels:
[1] = tested on: EKVX; experiment: NCI-60 anticancer screen (SRB; single dose and five doses); conditions: Homo sapiens
[2] = tested on: HS 578T; experiment: as above; conditions: Homo sapiens
[3] = tested on: HOP-92; experiment: as above; conditions: Homo sapiens
[4] = tested on: NCI-H322M; experiment: as above; conditions: Homo sapiens
[5] = tested on: NCI-H522; experiment: as above; conditions: Homo sapiens
[6] = tested on: 60 human tumor cell lines panel; experiment: NCI-60 anticancer screen, whole panel (means and ranges over the cell lines); assay type: cell-based; conditions: for activity at 10 µM: Homo sapiens, 48 h, dose of 10 μM
[7] = tested on: HCT-116; experiment: NCI-60 anticancer screen (SRB; single dose and five doses); conditions: Homo sapiens
[8] = tested on: SK-MEL-2; experiment: as above; conditions: Homo sapiens
[9] = tested on: SF-268; experiment: as above; conditions: Homo sapiens
[10] = tested on: OVCAR-3; experiment: cells; conditions: Homo sapiens
[11] = tested on: U251; experiment: NCI-60 anticancer screen (SRB; single dose and five doses); conditions: Homo sapiens
[12] = tested on: HCT-15; experiment: as above; conditions: Homo sapiens
[13] = tested on: K-562; experiment: as above; conditions: Homo sapiens
[14] = tested on: NCI-H226; experiment: as above; conditions: Homo sapiens
[15] = tested on: OVCAR-8; experiment: as above; conditions: Homo sapiens
[16] = tested on: MCF7; experiment: as above; conditions: Homo sapiens
[17] = tested on: HT29; experiment: as above; conditions: Homo sapiens
[18] = tested on: SNB-75; experiment: as above; conditions: Homo sapiens, SNB-75, 48 h, read-out: Growth Percentage
[19] = tested on: COLO 205; experiment: as above; conditions: Homo sapiens
[20] = tested on: CAKI-1; experiment: as above; conditions: Homo sapiens
[21] = tested on: UO-31; experiment: as above; conditions: Homo sapiens
[22] = tested on: IGROV1; experiment: as above; conditions: Homo sapiens
[23] = tested on: UACC-62; experiment: as above; conditions: Homo sapiens
[24] = tested on: MDA-MB-468; experiment: as above; assay type: cell-based, human
Procedure: The methodology of the NCI anticancer screening has been described in detail elsewhere (http://www.dtp.nci.nih.gov). For detailed information, see Appendix A in the Supplementary Materials.
4.2.1. Screening of the anticancer activity against a panel of 60 cell Lines.
The methodology of the NCI anticancer screening has been described in detail elsewhere (http://www.dtp.nci.nih.gov.) Briefly, the primary anticancer assay was performed at approximately 60 human tumor cell lines panel derived from nine neoplastic diseases, in accordance with the protocol of the Drug Evaluation Branch, National Cancer Institute, Bethesda. Tested compounds were added to the culture at a single concentration (10μM) and the cultures were incubated for 48 h. End -point determinations were made with a protein binding dye, SRB. Results for each tested compound was reported as the percent of growth of the treated cells when compared to the untreated control cells. The percentage growth was evaluated spectrophotometrically versus controls not treated with test agents. […]

[25] = tested on: ACHN; experiment: as above; conditions: Homo sapiens
[26] = 48 h, read-out: Growth Percentage
[27] = five doses, mean graph midpoint over all cell lines

Structure (SMILES): Cc1[nH]c(=S)sc1C(=O)/C=C/c1ccc(F)cc1 [2c, (E)-3-(4-Fluorophenyl)-1-(4-Methyl-2-Thioxo-2,3-Dihydrothiazol-5-yl)Prop-2-En-1-One]
- GI50 [1]: 12.8 µM
- activity at 10 µM [1, 26]: 51%
- CC50 ([1]; read-out: LC50): 64.6 µM
- IC (TGI) ([1]; read-out: TGI): 28.7 µM
- GI50 [2]: 13.2 µM
- activity at 10 µM [2, 26]: 95.3%
- CC50 ([2]; read-out: LC50): > 100 µM
- IC (TGI) ([2]; read-out: TGI): 40.2 µM
- GI50 ([3]; HOP-92): 3.35 µM
- activity at 10 µM ([3]; HOP-92, 48 h, read-out: Growth Percentage): 45.4%
- CC50 ([3]; HOP-92, read-out: LC50): 56 µM
- IC (TGI) ([3]; HOP-92, read-out: TGI): 15.8 µM
- GI50 [4]: 4.1 µM
- activity at 10 µM [4, 26]: 64%
- CC50 ([4]; read-out: LC50): 44.8 µM
- IC (TGI) ([4]; read-out: TGI): 17.9 µM
- GI50 ([5]; NCI-H522): 8.63 µM
- activity at 10 µM ([5]; NCI-H522, 48 h, read-out: Growth Percentage): 44.2%
- CC50 ([5]; NCI-H522, read-out: LC50): 46.8 µM
- IC (TGI) ([5]; NCI-H522, read-out: TGI): 21.2 µM
- activity at 10 µM ([6]; mean over the tested cell lines, read-out: Mean growth percentage): 36.7%
- activity at 10 µM ([6]; range over the cell lines, read-out: growth percentages against most of the tested cells (lowest to highest)): -13.6 to 119%
- Log10GI50 _MID [6, 27]: -5.23 Molar
- Log10LC50 _MID [6, 27]: -4.26 Molar
- Log10TGI _MID [6, 27]: -4.65 Molar
- GI50 ([7]; HCT-116): 3.99 µM
- activity at 10 µM ([7]; HCT-116, 48 h, read-out: Growth Percentage): 23.7%
- CC50 ([7]; HCT-116, read-out: LC50): 42.5 µM
- IC (TGI) ([7]; HCT-116, read-out: TGI): 15.2 µM
- GI50 ([8]; SK-MEL-2): 11.6 µM
- activity at 10 µM ([8]; SK-MEL-2, 48 h, read-out: Growth Percentage): 56.6%
- CC50 ([8]; SK-MEL-2, read-out: LC50): 50.1 µM
- IC (TGI) ([8]; SK-MEL-2, read-out: TGI): 24.1 µM
- GI50 ([9]; SF-268): 13 µM
- activity at 10 µM ([9]; SF-268, 48 h, read-out: Growth Percentage): 58.6%
- CC50 ([9]; SF-268, read-out: LC50): 63.1 µM
- IC (TGI) ([9]; SF-268, read-out: TGI): 28.7 µM
- GI50 ([10]; OVCAR-3): 2.42 µM
- activity at 10 µM ([10]; OVCAR-3, 48 h, read-out: Growth Percentage): -10.9%
- CC50 ([10]; OVCAR-3, read-out: LC50): 24.5 µM
- IC (TGI) ([10]; OVCAR-3, read-out: TGI): 6.81 µM
- GI50 ([11]; U-251): 3.63 µM
- activity at 10 µM ([11]; U-251, 48 h, read-out: Growth Percentage): 14.1%
- CC50 ([11]; U-251, read-out: LC50): 41.9 µM
- IC (TGI) ([11]; U-251, read-out: TGI): 15.1 µM
- GI50 ([12]; HCT-15): 3.27 µM
- activity at 10 µM ([12]; HCT-15, 48 h, read-out: Growth Percentage): 14.7%
- CC50 ([12]; HCT-15, read-out: LC50): 43.7 µM
- IC (TGI) ([12]; HCT-15, read-out: TGI): 14.2 µM
- GI50 ([13]; K562): 3.25 µM
- activity at 10 µM ([13]; K562, 48 h, read-out: Growth Percentage): 20.4%
- CC50 ([13]; K562, read-out: LC50): > 100 µM
- IC (TGI) ([13]; K562, read-out: TGI): 48.8 µM
- GI50 ([14]; NCI-H226): 5.27 µM
- activity at 10 µM ([14]; NCI-H226, 48 h, read-out: Growth Percentage): 67.1%
- CC50 ([14]; NCI-H226, read-out: LC50): > 100 µM
- IC (TGI) ([14]; NCI-H226, read-out: TGI): 27.6 µM
- GI50 ([15]; OVCAR-8): 3.99 µM
- activity at 10 µM ([15]; OVCAR-8, 48 h, read-out: Growth Percentage): -13.6%
- CC50 ([15]; OVCAR-8, read-out: LC50): 50.9 µM
- IC (TGI) ([15]; OVCAR-8, read-out: TGI): 16.2 µM
- GI50 ([16]; MCF7): 2.65 µM
- activity at 10 µM ([16]; MCF7, 48 h, read-out: Growth Percentage): 9.48%
- CC50 ([16]; MCF7, read-out: LC50): 37 µM
- IC (TGI) ([16]; MCF7, read-out: TGI): 11.4 µM
- GI50 ([17]; HT-29): 10.6 µM
- activity at 10 µM ([17]; HT-29, 48 h, read-out: Growth Percentage): 73.3%
- CC50 ([17]; HT-29, read-out: LC50): 52.4 µM
- IC (TGI) ([17]; HT-29, read-out: TGI): 23.6 µM
- activity at 10 µM [18]: 36.5%
- GI50 ([19]; COLO 205): 15.4 µM
- CC50 ([19]; COLO 205, read-out: LC50): 80.4 µM
- IC (TGI) ([19]; COLO 205, read-out: TGI): 35.2 µM
- GI50 ([20]; CAKI-1): 6.89 µM
- activity at 10 µM ([20]; CAKI-1, 48 h, read-out: Growth Percentage): 31.6%
- CC50 ([20]; CAKI-1, read-out: LC50): 45.4 µM
- IC (TGI) ([20]; CAKI-1, read-out: TGI): 20.2 µM
- GI50 ([21]; UO-31): 2.88 µM
- activity at 10 µM ([21]; UO-31, 48 h, read-out: Growth Percentage): 28.1%
- IC (TGI) ([21]; UO-31, read-out: TGI): 15.7 µM
- GI50 ([22]; IGROV-1): 4.93 µM
- activity at 10 µM ([22]; IGROV-1, 48 h, read-out: Growth Percentage): 51.2%
- CC50 ([22]; IGROV-1, read-out: LC50): 62.3 µM
- IC (TGI) ([22]; IGROV-1, read-out: TGI): 19.7 µM
- GI50 ([23]; UACC-62): 5.3 µM
- activity at 10 µM ([23]; UACC-62, 48 h, read-out: Growth Percentage): 47.3%
- IC (TGI) ([23]; UACC-62, read-out: TGI): 19.3 µM
- activity at 10 µM ([24]; Homo sapiens, 48 h, MDA-MB-468, dose of 10 μM, read-out: Growth Percentage): -4.51%
- GI50 ([24]; Homo sapiens, MDA-MB-468, Breast Cancer, five dose): 1.93 µM
- CC50 ([24]; Homo sapiens, MDA-MB-468, Breast Cancer, five dose, read-out: LC50 (the source's name)): 25.3 µM
- TGI ([24]; MDA-MB-468, Breast Cancer, five dose): 6.46 µM
- GI50 [25]: 7.02 µM
- activity at 10 µM [25, 26]: 47.2%
- CC50 ([25]; read-out: LC50): 44.3 µM
- IC (TGI) ([25]; read-out: TGI): 19.6 µM
